In ChEMBL document CHEMBL1201862, “PubChem BioAssay data set” (2004):
The source made the active and inactive calls.

What was measured:
[1] = target: Heat shock protein HSP 90-alpha (Homo sapiens, UniProt P07900); format: functional, organism-based
[2] = Luminescence Cell-Based Dose Response HTS to Identify Inhibitors of 5'UTR Stem-Loop Driven Prion Protein mRNA Translation in H4 Neuroglioblastoma Cells. [Related pubchem assays: 1827 (Project Summary), 1813 (Primary HTS)]; format: functional
[3] = C. albicans growth with fluconazole, confirmation, fluorescence, retest (AID 2467); format: functional, cell-based
[4] = inhibitors of SNCA 5'UTR-driven reporter translation, confirmation, H4 neuroglioma cells, luminescence (AID 1988); format: functional, cell-based
[5] = system: INS1; test: beta cell apoptosis inhibitors, cytokine rescue, dose response, luminescence, retest (AID 449756); format: functional, cell-based; conditions: Rattus norvegicus;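 also: cell death triggered by IL-1 beta plus TNF-alpha plus IFN-gamma mixture; protective hits raise ATP signal compared with cytokine alone wells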
[6] = control 3'UTR Renilla luciferase suppression, dose response, counter-screen for Shn3 inhibitor project, cell-based, Clone20-Shn3RL, cherry-picked (AID 624133); format: functional
[7] = inhibitors of firefly luciferase expression or activity, dose response, H4 neuroglioma cells, luminescence (AID 1990); format: functional, cell-based
[8] = target: Nonstructural protein 1 (Influenza A virus, UniProt Q194T2); format: functional, Influenza A virus (A/California/07/2009(H1N1))
[9] = NIH-3T3 fibroblast cytotoxicity, dose response, cytotoxicity control, cell-based, fluorescence, Alamar Blue, secondary assay (AID 2327); format: functional;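 also: NIH-3T3 mouse fibroblasts cultured with fluconazole at 8 µg/mL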
[10] = HepG2 cell cytotoxicity, dose response, cytotoxicity control for Shn3 inhibitor project, CellTiter-Glo, cherry-picked (AID 624134); format: functional, cell-based
[11] = Shn3 3'UTR reporter inhibitors, dose response, cell-based, Clone20 osteoblasts, firefly luciferase, cherry-picked (AID 624132); format: functional;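 also: firefly luciferase luminescence from reporter carrying the Shn3 3'UTR in osteoblasts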
[12] = Luminescence Cell-Based Dose Retest to Confirm Inhibitors of Cancer Stem Cells. [Related pubchem assays (depositor defined):AID2717, AID2721]; format: functional; conditions: Homo sapiens
[13] = target: T1, Calpain-2 catalytic subunit (Sus scrofa, UniProt P43367); test: pig calpain II inhibitor potency, dose response, biochemical, fluorogenic peptide substrate (AID 1420); format: functional
T1 sequence (P43367 whole entry): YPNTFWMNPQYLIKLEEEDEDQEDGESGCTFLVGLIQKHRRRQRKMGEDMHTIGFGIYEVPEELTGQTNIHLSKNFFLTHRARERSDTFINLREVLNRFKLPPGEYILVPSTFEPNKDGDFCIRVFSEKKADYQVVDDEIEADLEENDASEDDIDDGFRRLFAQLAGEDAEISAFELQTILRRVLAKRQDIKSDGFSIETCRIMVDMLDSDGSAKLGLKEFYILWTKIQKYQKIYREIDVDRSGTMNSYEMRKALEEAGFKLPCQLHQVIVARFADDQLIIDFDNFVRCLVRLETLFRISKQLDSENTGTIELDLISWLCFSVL

[14] = target: Beta-galactosidase (Escherichia coli, UniProt Q8VNN2); test: Dose response counterscreen for EBI2 assay utilizing the enzyme, b-galactosidase.; format: functional
Beta-galactosidase, sequence (Q8VNN2 whole entry): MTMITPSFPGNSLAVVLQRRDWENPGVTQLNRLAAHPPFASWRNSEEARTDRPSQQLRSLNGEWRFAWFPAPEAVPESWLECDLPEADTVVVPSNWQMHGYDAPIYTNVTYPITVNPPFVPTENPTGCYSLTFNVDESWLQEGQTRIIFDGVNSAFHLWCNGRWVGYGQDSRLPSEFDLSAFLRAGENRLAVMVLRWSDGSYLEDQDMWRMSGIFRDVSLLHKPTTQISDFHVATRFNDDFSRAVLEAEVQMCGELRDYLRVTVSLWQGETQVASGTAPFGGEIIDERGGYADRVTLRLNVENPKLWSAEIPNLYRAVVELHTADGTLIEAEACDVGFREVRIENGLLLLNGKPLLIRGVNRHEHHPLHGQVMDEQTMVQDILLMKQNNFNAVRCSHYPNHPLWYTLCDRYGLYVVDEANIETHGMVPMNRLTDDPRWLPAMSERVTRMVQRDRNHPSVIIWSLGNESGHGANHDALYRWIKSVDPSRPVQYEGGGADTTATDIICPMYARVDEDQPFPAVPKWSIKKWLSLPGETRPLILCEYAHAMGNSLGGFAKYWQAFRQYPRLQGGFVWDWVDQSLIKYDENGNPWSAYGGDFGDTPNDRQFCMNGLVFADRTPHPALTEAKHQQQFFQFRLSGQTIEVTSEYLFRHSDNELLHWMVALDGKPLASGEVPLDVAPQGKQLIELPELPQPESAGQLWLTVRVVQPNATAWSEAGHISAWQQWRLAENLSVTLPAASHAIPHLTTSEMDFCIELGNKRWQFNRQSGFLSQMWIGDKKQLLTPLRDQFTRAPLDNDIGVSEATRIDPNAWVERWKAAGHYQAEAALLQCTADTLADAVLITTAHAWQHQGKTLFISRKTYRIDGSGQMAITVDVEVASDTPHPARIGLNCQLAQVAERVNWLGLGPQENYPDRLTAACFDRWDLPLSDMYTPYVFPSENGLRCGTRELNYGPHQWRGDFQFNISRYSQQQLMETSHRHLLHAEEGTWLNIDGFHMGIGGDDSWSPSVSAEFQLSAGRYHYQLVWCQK

Nonstructural protein 1, sequence (Q194T2 whole entry): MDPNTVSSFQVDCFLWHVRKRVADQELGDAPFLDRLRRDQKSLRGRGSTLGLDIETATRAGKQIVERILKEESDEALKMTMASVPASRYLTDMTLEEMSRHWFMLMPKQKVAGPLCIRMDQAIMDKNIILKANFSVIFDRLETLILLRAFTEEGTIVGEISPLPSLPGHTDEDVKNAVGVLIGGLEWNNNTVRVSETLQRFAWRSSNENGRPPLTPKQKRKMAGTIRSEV

SMILES: NC(=O)C1CCN(C2CC(=O)N(c3ccc(F)c(Cl)c3)C2=O)CC1 (stereo unspecified)
- AC50 [1]: 3.04 µM (active)

SMILES: OCc1ccc(O)c2ncccc12
- EC50 [2]: 2.95 µM (active)
- EC50 [3]: > 38 µM (not active)
- EC50 [4]: 1.2 µM (active)
- AC50 [5]: 3.37 µM (active)
- AC50 [6]: 2.24 µM (active)
- EC50 [7]: 0.712 µM (active)
- IC50 [8]: 10.5 µM (active)
- EC50 [9]: > 150 µM (inactive)
- AC50 [10]: 5.94 µM (active)
- AC50 [11]: 1.66 µM (active)

SMILES: CCN(CC)C1CC(=O)N(c2cccc(Cl)c2)C1=O (stereo unspecified)
- AC50 [1]: 2.21 µM (active)

SMILES: Cc1ccc(S(=O)(=O)N(C(=O)c2ccncc2)c2ccc(OC(=O)c3ccncc3)cc2)cc1
- AC50 [1]: 1.23 µM (active)

SMILES: CC(C)=CCc1c(O)ccc(C2COc3c(CC=C(C)C)c(O)cc(O)c3C2=O)c1O (stereo unspecified)
- AC50 [1]: 15.9 µM (active)

SMILES: COc1ccc(NC(=O)c2c(N)no[n+]2[O-])cc1
- EC50 [3]: 2.19 µM (active)
- AC50 [12]: 0.754 µM (active)
- EC50 [9]: 1.6 µM (active)

SMILES: CC1CCN(c2nc3ccccc3n2CC(=O)c2ccccc2)CC1
- IC50 [13]: > 50 µM (not active)

SMILES: N#C/C(=C/c1ccc(O)cc1)C(=O)NCc1ccc(Cl)cc1
- AC50 [1]: 3.08 µM (active)

SMILES: O=c1c2c3c(sc2ncn1/N=C/c1ccc([N+](=O)[O-])o1)CCCC3
- AC50 [12]: 4.45 µM (active)
- AC50 [1]: 0.637 µM (active)

SMILES: Cc1cccc(NC(=O)NCc2ccc3[nH]c(C)cc3c2)c1
- IC50 [13]: 7.26 µM (not active)

SMILES: O=C(COc1ccc(Br)cc1)N1CCN(S(=O)(=O)/C=C/c2ccccc2)CC1
- IC50 [14]: > 80 µM (inactive)

SMILES: Cc1ccc2oc(=O)c3cnn(CC(=O)N(CCC(C)C)Cc4ccco4)c3c2c1
- IC50 [14]: > 80 µM (inactive)

SMILES: COCCNC(=O)CCCn1c(=O)c2cc(OC)c(OC)cc2n(CC(=O)NCCC2=CCCCC2)c1=O
- EC50 [3]: 3.16 µM (active)
- EC50 [9]: > 160 µM (inactive)

SMILES: COc1ccccc1N1CCN(C(=O)c2cc3c(C)nc4ccccc4c3o2)CC1
- IC50 [14]: > 80 µM (inactive)

SMILES: COc1ccc(OC)c(NC(=O)C(=O)/C=C(\O)c2cc(OC)ccc2OC)c1
- EC50 [3]: > 38 µM (not active)
- EC50 [9]: 29.9 µM (inconclusive)

SMILES: O=C(Cn1nc(-c2ccc3c(c2)OCCO3)ccc1=O)Nc1cccc(NC(=O)c2ccccn2)c1
- IC50 [13]: > 50 µM (not active)

SMILES: O=C(/C=C/c1ccccc1)N1CCN(c2c(Cl)cccc2[N+](=O)[O-])CC1
- IC50 [14]: > 80 µM (inactive)
